Measurements: the supplement of paper PMC10307832

Assays:
Test in all cases: relative viability (nuclei count vs DMSO), 5 days (fraction); higher = more cells survive
VX-702 + Pictilisib = compound: NC(=O)c1ccc(N(C(N)=O)c2c(F)cccc2F)nc1-c1ccc(F)cc1F [VX-702] + CS(=O)(=O)N1CCN(Cc2cc3nc(-c4cccc5[nH]ncc45)nc(N4CCOCC4)c3s2)CC1 [Pictilisib] (partner 1 µM)
Summary of the method: (§1)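 After 5 days of treatment, lung cancer cells in 1536-well plates were fixed and stained in a single step (final 0.05% Triton X-100, 1% formaldehyde, 1 ug/ml Hoechst) and their nuclei counted on 4× images. Treatment had been applied by pin tool the day after seeding as one drug alone or as a fixed anchor-drug dose with five library-drug doses (not always all listed) in √10 steps. Relative viability is the nuclei count of treated wells divided by that of vehicle wells, and values are medians of duplicate plates.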

Dabrafenib + Pemetrexed = compound: CC(C)(C)c1nc(-c2cccc(NS(=O)(=O)c3c(F)cccc3F)c2F)c(-c2ccnc(N)n2)s1 [Dabrafenib] + Nc1nc2[nH]cc(CCc3ccc(C(=O)N[C@@H](CCC(=O)O)C(=O)O)cc3)c2c(=O)[nH]1 [Pemetrexed] (partner 0.2 µM)
Summary of the method: as §1

Dabrafenib + Olaparib = compound: CC(C)(C)c1nc(-c2cccc(NS(=O)(=O)c3c(F)cccc3F)c2F)c(-c2ccnc(N)n2)s1 [Dabrafenib] + O=C(c1cc(Cc2n[nH]c(=O)c3ccccc23)ccc1F)N1CCN(C(=O)C2CC2)CC1 [Olaparib] (partner 8 µM)
Summary of the method: as §1

VX-702 + Vorinostat = compound: NC(=O)c1ccc(N(C(N)=O)c2c(F)cccc2F)nc1-c1ccc(F)cc1F [VX-702] + O=C(CCCCCCC(=O)Nc1ccccc1)NO [Vorinostat] (partner 1 µM)
Summary of the method: as §1

Cell Line | relative viability (VX-702 + Pictilisib; first compound 0.02 µM) | relative viability (VX-702 + Pictilisib; first compound 0.2 µM) | relative viability (VX-702 + Pictilisib; first compound 0.6325 µM) | relative viability (VX-702 + Pictilisib; first compound 2 µM) | relative viability (Dabrafenib + Pemetrexed; first compound 0.003 µM) | relative viability (Dabrafenib + Pemetrexed; first compound 0.009487 µM) | relative viability (Dabrafenib + Pemetrexed; first compound 0.03 µM) | relative viability (Dabrafenib + Pemetrexed; first compound 0.09487 µM) | relative viability (Dabrafenib + Pemetrexed; first compound 0.3 µM) | relative viability (Dabrafenib + Olaparib; first compound 0.003 µM) | relative viability (Dabrafenib + Olaparib; first compound 0.009487 µM) | relative viability (Dabrafenib + Olaparib; first compound 0.03 µM) | relative viability (Dabrafenib + Olaparib; first compound 0.09487 µM) | relative viability (Dabrafenib + Olaparib; first compound 0.3 µM) | relative viability (VX-702 + Vorinostat; first compound 0.02 µM) | relative viability (VX-702 + Vorinostat; first compound 0.2 µM) | relative viability (VX-702 + Vorinostat; first compound 0.6325 µM) | relative viability (VX-702 + Vorinostat; first compound 2 µM)
201T | 0.698 | 0.634 | 0.676 | 0.668 | 0.332 | 0.352 | 0.332 | 0.307 | 0.287 | 0.87 | 0.836 | 0.762 | 0.811 | 0.841 | 0.966 | 0.956 | 1.09 | 1
HCC-44 | 0.726 | 0.552 | 0.479 | 0.522 | 0.61 | 0.58 | 0.697 | 0.598 | 0.651 | 0.952 | 1.03 | 1.08 | 1 | 0.956 | 1.17 | 1.09 | 1.19 | 1.16
ABC-1 | 0.829 | – | 0.649 | 0.655 | – | – | – | – | – | – | 0.707 | 0.953 | 0.849 | 1.26 | 1.46 | 0.922 | 1.17 | 1.41
HARA | 0.361 | 0.412 | 0.325 | 0.332 | – | 0.221 | 0.252 | 0.238 | 0.247 | – | 0.971 | 0.799 | 0.647 | 1.12 | 0.527 | 0.51 | 0.542 | 0.449
A-427 | 0.786 | 0.706 | 0.701 | 0.566 | 0.891 | 1.04 | 0.828 | 0.803 | 0.987 | 0.704 | 0.685 | 0.707 | 0.658 | 0.726 | 0.897 | 0.869 | 0.895 | 1.01
NCI-H3122 | 0.572 | 0.59 | 0.578 | 0.589 | 0.19 | 0.195 | 0.214 | 0.203 | 0.215 | 0.631 | 0.605 | 0.647 | 0.508 | 0.562 | 1.36 | 1.03 | 1.22 | 1.1
PC-14 | 0.629 | 0.608 | 0.625 | 0.807 | – | 0.135 | 0.133 | 0.125 | 0.154 | 0.237 | 0.293 | 0.241 | 0.283 | 0.338 | 0.806 | 0.774 | 0.74 | 0.531
NCI-H1915 | 1.14 | 0.848 | 0.949 | 1.1 | 0.507 | 0.451 | 0.457 | 0.272 | 0.372 | 0.276 | 0.233 | 0.214 | 0.215 | 0.268 | 0.578 | 0.513 | 0.492 | 0.548
NCI-H1793 | 0.311 | 0.262 | 0.389 | 0.252 | – | 1.08 | – | 0.911 | 1.17 | – | 1.06 | – | 0.612 | 1.09 | 0.669 | – | 0.757 | 0.591
NCI-H1703 | 0.229 | 0.277 | 0.218 | 0.263 | – | – | – | – | – | 0.602 | 0.548 | 0.326 | 0.341 | 0.395 | – | – | – | –
Calu-6 | 0.973 | 1.05 | 0.996 | 1.11 | – | – | – | – | – | 0.569 | 0.556 | 0.482 | 0.303 | 0.481 | – | – | – | –
NCI-H1792 | 0.228 | 0.222 | 0.22 | 0.247 | – | 1.03 | 0.622 | 0.723 | 0.525 | – | 0.522 | 0.25 | 0.324 | 0.417 | – | – | – | –
NCI-H522 | – | – | – | – | – | 1.08 | 0.833 | 1.07 | 0.989 | – | 0.788 | 0.59 | 0.642 | 0.633 | 1.06 | 0.899 | 1.03 | 1.11
NCI-H1299 | 0.802 | 0.65 | 0.554 | 0.547 | – | – | – | – | – | 0.932 | 0.886 | 0.902 | 0.884 | 0.794 | – | – | – | –
IA-LM | 0.298 | 0.324 | 0.265 | 0.352 | – | – | – | – | – | 0.873 | 0.743 | 0.831 | 0.687 | 0.554 | 0.937 | 0.936 | 0.853 | 0.878
EBC-1 | 0.381 | 0.331 | 0.307 | 0.311 | – | – | – | – | – | 0.686 | 0.691 | 0.664 | 0.39 | 0.474 | – | – | – | –
NCI-H1563 | 0.685 | 0.626 | 0.594 | 0.625 | 0.667 | 0.836 | 0.591 | 0.822 | 0.744 | – | – | – | – | – | – | – | – | –
NCI-H2342 | – | – | – | – | 0.751 | 0.779 | 0.747 | 0.765 | 0.858 | 0.42 | 0.435 | 0.401 | 0.454 | 0.541 | 0.717 | 0.956 | 0.832 | 0.867
NCI-H727 | 0.343 | 0.302 | 0.382 | 0.356 | – | – | – | – | – | 0.554 | 0.656 | – | 0.612 | 0.796 | 1.25 | 1.28 | 1.18 | 1.39
A549 | 0.48 | 0.517 | 0.519 | 0.705 | – | – | – | – | – | – | 0.34 | 0.293 | 0.112 | 0.317 | – | – | – | –
